Laboratory results published in article PMC7796107, “Efficient Separation of Phytochemicals from Muehlenbeckia volcanica (Benth.) Endl. by Polarity-Stepwise Elution Counter-Current Chromatography and Their Antioxidant, Antiglycation, and Aldose Reductase Inhibition Potentials” (Molecules, 2021).
Marks after values point to notes of the source that are not given here.

What was measured:
diabetic rats = conditions: cited from earlier work
[1] = ORAC (oxygen radical absorbance capacity) assay; type: biochemical; conditions: Trolox equivalent antioxidant capacity, ORAC assay (peroxyl radicals)
Procedure: (§1) The antioxidant activities of the 70% methanol extract of M. volcanica and the separated compounds were evaluated using DPPH, ABTS, and ORAC assays. The results were expressed as Trolox equivalent antioxidant capacity (TEAC, µg Trolox/µg extract or µM Trolox/µM compound), which were calculated with the equations obtained from the calibration curves of Trolox standards (final concentrations) versus their DPPH and ABTS radical inhibition (%) and the net AUC value (ORAC assay).
The ORAC assay was carried out using a Fluoroskan Ascent FL microplate reader (Thermo, Waltham, MA, USA) using the method described previously with minor modifications. Antioxidants can scavenge the peroxyl radicals generated by AAPH, which prevent the degradation of the fluorescein and, therefore, prevent the loss of the fluorescence of fluorescein. Briefly, fluorescein sodium salt (117 nM) and AAPH (40 mM) were freshly prepared in 0.1 M phosphate-buffered saline (PBS, pH 7.4). For reaction, 120 µL of fluorescein sodium salt (117 nM) and 20 µL of sample (dissolved in methanol, extract 10–20 µg/mL; compounds 10–160 µM) were mixed in a black 96-well plate and pre-incubated for 15 min at 37 °C. Next, 60 µL of AAPH (40 mM) was added, and the fluorescence was measured 100 times (interval 1 min) at excitation and emission wavelengths of 485 nm and 538 nm, respectively, by the microplate reader maintained at 37 °C. […] The relative ORAC values are expressed in µg Trolox equivalents/µg extract or µM Trolox equivalents/µM compound.

[2] = cited from earlier work
aldose reductase (AR) = target: T1, aldose reductase (AR) (Rattus norvegicus, UniProt P07943); test: Aldose reductase (AR) inhibition assay, rat lens homogenate; type: biochemical, Sprague–Dawley rats
T1 construct: centrifuged at 10,000× g for 30 min at 4 °C (Centrifuge 5417R, Eppendorf, Germany) to obtain AR homogenate (in the supernatant); from tissue; host or cells: eye lenses of Sprague–Dawley rats
Procedure: For the extraction of AR, the rat eye lenses were grounded in a precooled mortar (−70 °C) and extracted using 0.1 M PBS (pH 6.2; about 0.5 mL of PBS per two frozen rat lenses).
A 96-well plate-based AR inhibition assay was used in this study, which was modified from a previous method. In principle, the rate of the absorbance decrease of NADPH at 340 nm (OD340 nm) was used for evaluation of the AR inhibitory activity. […] Then, as soon as 20 μL of the substrate (DL-glyceraldehyde dimer, 25 mM in 0.1 M PBS, pH 7.0) was added, the absorbance of the reaction solution at 340 nm was measured for 6 min using an Epoch microplate spectrophotometer (BioTek Instruments, Highland Park, IL, USA). […] The samples were first prepared at high concentrations in DMSO or in a mixture of DMSO and water and then diluted using water shortly before the experiment. The concentration of DMSO was kept within 0.2% (v/v) in the reaction system. […] The AR inhibition ratio (%) for the samples was calculated using Equation (4):(4) %inhibition=1−Slopes−Slopeb/Slopec−Slopeb×100%, where Slopec, Slopes, and Slopeb are the slopes obtained from the OD340 nm versus the reaction time (min) dotted lines of the control group (without sample), sample group (with enzyme and sample), and blank group (without enzyme or sample), respectively. |Slope| is the absolute value of Slope.

[3] = target: fructose-mediated bovine serum albumin (BSA) glycation (Bos taurus, UniProt P02769); test: Antiglycation assay, fructose-mediated BSA glycation model
Chain of fructose-mediated bovine serum albumin (BSA) glycation (P02769 25-607): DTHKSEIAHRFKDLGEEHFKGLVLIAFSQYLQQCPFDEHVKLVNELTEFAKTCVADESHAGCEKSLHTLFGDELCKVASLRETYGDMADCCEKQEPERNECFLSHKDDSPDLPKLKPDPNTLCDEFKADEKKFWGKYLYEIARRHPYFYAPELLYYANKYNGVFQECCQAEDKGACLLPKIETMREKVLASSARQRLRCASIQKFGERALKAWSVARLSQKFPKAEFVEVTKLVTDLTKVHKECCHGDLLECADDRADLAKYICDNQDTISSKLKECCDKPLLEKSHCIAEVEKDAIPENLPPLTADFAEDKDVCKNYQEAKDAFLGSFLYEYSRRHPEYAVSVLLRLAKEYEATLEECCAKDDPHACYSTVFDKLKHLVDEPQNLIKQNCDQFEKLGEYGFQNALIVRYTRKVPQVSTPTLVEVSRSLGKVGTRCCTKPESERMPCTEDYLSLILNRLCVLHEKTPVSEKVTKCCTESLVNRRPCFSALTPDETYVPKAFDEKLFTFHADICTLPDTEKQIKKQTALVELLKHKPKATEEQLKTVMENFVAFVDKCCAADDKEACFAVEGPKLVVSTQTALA
Procedure: The antiglycation assay was carried out using a fructose-mediated BSA glycation model as reported previously [43] with minor modifications. […] Then, 200 µL of the reaction solution from each sample was pipetted to black 96-well plates to determine the fluorescent AGEs using a microplate fluorescence reader (BIOTEK-FLx800, Winooski, VT, USA) at excitation and emission wavelengths of 360 ± 20 nm and 460 ± 20 nm, respectively. Aminoguanidine [25], a synthetic antiglycation agent, was used as a positive control with final concentrations of 200 µg/mL to 800 µg/mL or 1 mM to 4 mM.

[4] = tested on: streptozotocin-induced diabetic rats; conditions: cited from earlier work
[5] = ABTS radical scavenging assay; type: biochemical; conditions: Trolox equivalent antioxidant capacity
Procedure: as §1
The ABTS radical scavenging assay was carried out using the same EL800 microplate reader. Briefly, 0.2 mM of ABTS diammonium salt was prepared in 3.5 mM of potassium persulfate aqueous solution, and the mixture solution was then diluted 10 times using distilled water. The diluted solution was allowed to stand for 24 h in the dark at room temperature (about 25 °C) to produce ABTS radical cations (ABTS^+). For reaction, 290 μL of ABTS^+ solution was mixed with 10 μL of sample (dissolved in methanol, extract 62.5–125 µg/mL; compounds 20–250 µM) in a 96-well plate, and the mixture solution was allowed to react for 10 min at 25 °C in the dark. Then, the absorbance was measured at 750 nm. […] Results are expressed in µg Trolox equivalents/µg extract or µM Trolox equivalents/µM compound. The ABTS radical scavenging activity (%) is calculated using Equation (1) where Asample is the absorbance of ABTS^+ solution with a sample, Ablank1 is the absorbance of the test sample without ABTS^+, Acontrol is the absorbance of ABTS^+ solution without a sample, Ablank2 is the absorbance of buffer, without ABTS^+ or a sample.

human erythrocytes = tested on: human erythrocytes; parameters: method as in earlier work; conditions: high glucose conditions; cited from earlier work
[6] = DPPH radical scavenging assay; type: biochemical; conditions: Trolox equivalent antioxidant capacity
Procedure: as §1
The DPPH radical scavenging assay was carried out using an EL800 microplate reader (Bio-Tek Instruments, Winooski, VT, USA). Briefly, 180 μL of freshly prepared DPPH solution (0.32 mM in methanol) was mixed with 20 μL of sample (dissolved in methanol, extract 250 µg/mL; compounds 62.5–1000 µM) in a 96-well plate. The mixture was incubated for 20 min in the dark at 25 °C, and then, the absorbance was measured at […]. […] Results are expressed in µg Trolox equivalents/µg extract or µM Trolox equivalents/µM compound. The DPPH radical scavenging activity (%) is calculated using Equation (1):(1) %inhibition=1−Asample−Ablank1/Acontrol−Ablank2×100%, where Asample is the absorbance of DPPH solution with a sample, Ablank1 is the absorbance of the test sample without DPPH, Acontrol is the absorbance of DPPH solution without a sample, Ablank2 is the absorbance of methanol, without DPPH or a sample.

[7] = tested on: streptozotocin-induced diabetic cats; conditions: cited from earlier work
[8] = read-out: Antiglycation activity, inhibition (%)

## C[C@@H]1O[C@@H](OC[C@H]2O[C@@H](Oc3c(-c4ccc(O)c(O)c4)oc4cc(O)cc(O)c4c3=O)[C@H](O)[C@@H](O)[C@@H]2O)[C@H](O)[C@H](O)[C@H]1O [Rutin (8), rutin]
Diabetic rats
  Progression of lens opacification: delay the progression of lens opacification
[1]
  TEAC, ORAC: 5.77 ± 0.08 ^b µM trolox/µM Compound
[2]
  Inhibition of AGEs by trapping methylglyoxal: inhibit AGEs by trapping methylglyoxal
Aldose reductase (AR); 3.125 µM, read-out: AR inhibition activity, inhibition (%)
  inhibition at 3.125 µM: 46.4 ± 1.21%
Aldose reductase (AR); 6.25 µM, read-out: AR inhibition activity, inhibition (%)
  inhibition at 6.25 µM: 62.79 ± 0.3%
Aldose reductase (AR); 12.5 µM, read-out: AR inhibition activity, inhibition (%)
  inhibition at 12.5 µM: 75.2 ± 0.9%
Aldose reductase (AR); 25 µM, read-out: AR inhibition activity, inhibition (%)
  inhibition at 25 µM: 84.5 ± 1.51%
Aldose reductase (AR); rat lens AR homogenate
  IC50: 3.51 ± 0.12 µM
[3]
  IC50: 20.1 ± 0.23 µM
[3]; [8]
  inhibition at 12.5 µM: 30.8 ± 1.1%
  inhibition at 25 µM: 61.7 ± 2.49%
  inhibition at 50 µM: 81.82 ± 0.65%
  inhibition at 100 µM: 91.51 ± 0.4%
[4]
  Effect on oxidative stress: ameliorate the oxidative stress
[5]
  TEAC, ABTS: 1.12 ± 0.04 ^d µM trolox/µM Compound
Human erythrocytes
  Accumulation of sorbitol in human erythrocytes: suppress the accumulation of sorbitol
[6]
  TEAC, DPPH: 0.90 ± 0.09 ^e µM trolox/µM Compound
[7]
  Impaired cardiac function: partially reverse the impaired cardiac function
